Assay results: patent publication US20030211152A1, “Controlled release formulation for treating COPD” (SmithKline Beecham Corporation, priority 1999, published 2003)
Like-named read-outs stand apart in the source and are kept apart here.

What was measured:
[1] = test system: PDE 4; experiment: IC50 ratio: competing with [3H]R-rolipram binding to high affinity form over inhibiting catalytic activity of low affinity form; format: biochemical; details: 1 nM [3H]R-rolipram binding; 1 uM [3H]-cAMP as substrate
From the text: This invention covers controlled release formulations which contain a PDE 4 inhibitor, particularly an inhibitor that is specific for PDE 4. A preferred group of inhibitors are those that have an IC50 ratio (high/low binding) of about 0.1 or greater as further described in co-pending U.S. application Ser. No. 08/456,274 and its published counter-part PCT application serial number published Jan. 5, 1995 as WO95/00139; this application is incorporated herein in full by reference as if fully set forth herein. A preferred standard for PDE 4-specific inhibitors which can be used in this invention is one where the compound has an IC50 ratio of about 0.1 or greater; said ratio being the ratio of the IC50 value for competing with the binding of 1 nM of [^3H]R-rolipram to a form of PDE 4 which binds rolipram with a high affinity over the IC50 value for inhibiting the PDE 4 catalytic activity of a form which binds rolipram with a low affinity using 1 uM[^3H]-cAMP as the substrate.

[2] = Side effects with increasing oral dose and blood levels; format: in vivo; details: as blood levels increase with increased levels of dosing
From the text: While to date no one has been able to identify a compound which is completely without unwanted CNS side effects at all possible dosage levels, at least one compound has been identified that meets the criteria described above, namely cis-4-cyano-4-[3-(cyclopentyloxy)-4-methoxyphenyl]cyclohexane-1-carboxylic acid. […] This is particularly true with COPD. […] The controlled release formulations of this invention allow for administering in a single dosage form several times the quantity that can otherwise be administered of a PDE4 inhibitor and achieve both initial therapeutically effective blood levels and maintain these blood level for an extended period of time. PDE4 inhibitors, particularly PDE4-specific inhibitors are useful in treating other diseases especially in the areas of inflammation, (e.g., asthma, chronic obstructive pulmonary disease, inflammatory bowel disease, rheumatoid arthritis), affects related to tumor necrosis factor and to cognition impairment (e.g., multi-infarct dementia, cognitive dysfunction, or stroke). This invention is useful in treating these diseases as well. These formulations and the method descibed herein can be used for prophylactic treatment as well. Additional other therapeutic or prophylactic agents can be combined with a PDE4 inhibitor in these formulations as well.

[3] = clinical studies / indications; cited from earlier work

Row | SMILES | therapeutic ratio (IC50 ratio high/low binding) [1] | side effects [2] | side effects [3]
1 | COc1ccc([C@]2(C#N)CC[C@@H](C(=O)O)CC2)cc1OC1CCCC1 [cis-4-cyano-4-[3-(cyclopentyloxy)-4-methoxyphenyl]cyclohexane-1-carboxylic acid] | greater than 0.1 | undesirable side effects such as those attributed to CNS activity begin to be manifested | 
2 | CCCCn1c(=O)c2c(ncn2CC(C)=O)n(CCCC)c1=O [denbufylline] |  |  | pyrosis, nausea and emesis
3 | COc1ccc(C2CNC(=O)C2)cc1OC1CCCC1 (stereo not shown) [rolipram] |  |  | psychotropic activity and produces gastrointestinal effects, e.g., pyrosis, nausea and emesis
